Laboratory results from patent publication US20250059196A1 (SHANGHAI HANSOH BIOMEDICAL CO., LTD., priority 2021, published 2025).

What was measured:
OCI-Ly3 cells = test: Inhibition of proliferation of OCI-Ly3 cells (CellTiter-Glo); format: cell-based, human; settings: Homo sapiens, 96 h incubation, read-out: Inhibition test of proliferation of OCI-Ly3 cells IC50
Procedure, shortened: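 OCI-Ly3 cells were plated and dosed the next day with 9 concentrations in 3-fold dilutions from 1000 nM to 0.15 nM. Cells were incubated 96 h, and viability was read by CellTiter-Glo luminescence. IC50 was fitted by four-parameter variable-slope log(inhibitor)-response regression.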

[1] = target: Recombinant human MALT1/MLT protein (Homo sapiens (Human), UniProt Q9UDY8); test: Inhibitory effect on MALT1 enzyme activity (Ac-LRSR-AMC substrate, fluorescence 460 nm); format: biochemical; settings: 10 nM FL MALT1, Ac-LRSR-AMC substrate, 50 min pre-incubation, 4 h reaction
Chain of Recombinant human MALT1/MLT protein (Q9UDY8 whole entry): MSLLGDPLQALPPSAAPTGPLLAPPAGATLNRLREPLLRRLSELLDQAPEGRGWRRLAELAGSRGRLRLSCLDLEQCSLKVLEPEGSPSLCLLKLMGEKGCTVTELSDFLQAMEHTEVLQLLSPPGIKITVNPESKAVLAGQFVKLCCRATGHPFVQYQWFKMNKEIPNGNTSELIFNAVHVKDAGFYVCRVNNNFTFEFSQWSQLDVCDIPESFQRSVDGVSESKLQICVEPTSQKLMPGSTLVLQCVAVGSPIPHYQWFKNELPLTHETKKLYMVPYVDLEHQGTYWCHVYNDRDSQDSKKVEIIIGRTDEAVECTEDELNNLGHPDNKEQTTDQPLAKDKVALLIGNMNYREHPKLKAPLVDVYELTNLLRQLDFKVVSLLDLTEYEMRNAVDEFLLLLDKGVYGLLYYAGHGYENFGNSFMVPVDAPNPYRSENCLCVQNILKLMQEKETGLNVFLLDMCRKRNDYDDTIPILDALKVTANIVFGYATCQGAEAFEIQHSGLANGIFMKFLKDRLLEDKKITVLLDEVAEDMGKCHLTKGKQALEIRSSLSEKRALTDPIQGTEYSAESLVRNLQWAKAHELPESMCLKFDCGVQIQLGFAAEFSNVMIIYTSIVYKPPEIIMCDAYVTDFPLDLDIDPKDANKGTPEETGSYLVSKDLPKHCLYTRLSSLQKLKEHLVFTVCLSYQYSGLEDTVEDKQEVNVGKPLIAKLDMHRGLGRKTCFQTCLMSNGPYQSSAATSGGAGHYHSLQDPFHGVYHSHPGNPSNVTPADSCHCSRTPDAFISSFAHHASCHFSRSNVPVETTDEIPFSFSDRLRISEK
Procedure, shortened: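 Full-length MALT1 (10 nM) pre-incubated 50 min at room temperature with compound (11-point 3-fold series from 1000 nM), then 4 h reaction with […] Ac-LRSR-AMC in Tris pH 7.5, 0.6 M citrate, DTT, EDTA, BSA, 1.5% DMSO. Fluorescence at 460 nm; IC50 from four-parameter fit.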

[2] = tested on: OCI-LY3 cell subcutaneous xenograft tumor; test: Tumor inhibition in OCI-LY3 subcutaneous xenograft NOG mouse model of human diffuse large B-cell lymphoma; format: in vivo; settings: NOG mice, 30 mg, BID × 4 weeks, oral; for Weight Day 28: in g (unit assumed); for Tumor volume (Mean ± SD) Day 28: vehicle group 1274 ± 82
Description: The efficacy of test drugs was evaluated in OCI-LY3 mouse subcutaneous tumor model of human diffuse large B-cell lymphoma
• 1. Animal: NOG mice, female, 6-8 weeks old, weighing 18-22 grams, a total of 65 mice were needed. Provided by Beijing Vital River Laboratory Animal Technology Co., Ltd. or other qualified suppliers. • 2. Cell: Human diffuse large B-cell lymphoma OCI-LY3 cells were cultured in vitro as monolayers and conventional digestion treatment with trypsin-EDTA was carried out twice a week for passage. When the cell confluence was 80%-90% and the number reached the required number, cells were collected, counted, and inoculated. • 3. Grouping for vaccination: Cells (5×10^6 cells+Matrigel/0.2 ml) were inoculated subcutaneously into each mouse. The growth of animals and transplanted tumors were observed regularly. When the tumor grew to a volume of about 150-200 mm^3, the tumor volume of each mouse was calculated, and the mice were divided into random groups according to tumor volume and body weight. The calculation formula of tumor volume was V=0.5a×b^2, wherein a and b represented the long and short diameters of the tumor, respectively. • 4. Administration: According to the grouping results, the test drug was started to be administered (administration method: oral administration; Administration volume: 10 mL/kg; Administration frequency: 2 times/day; Administration cycle: 28 days; Vehicle: 10% solutol HS15-0.25% CMC-Na). Tumors were measured and weighed twice a week after starting administration of test drugs. • 5. Animals were euthanized after the experiment. • 6. Data processing: The tumor inhibitory efficacy of the compound was evaluated by TGI (%) or relative tumor proliferation rate T/C (%). TGI (%) reflects the tumor growth inhibition rate. Calculation of TGI (%): TGI (%)=[(1−(average tumor volume at the end of administration in a treatment group−average tumor volume at the beginning of administration in the treatment group))/(average tumor volume at the end of administration in the solvent control group−average tumor volume at the beginning of administration in the solvent control group)]×100%.
Relative tumor proliferation rate T/C (%): The calculation formulas are as follows: T/C %=TRTV/CRTV×100% (TRTV: RTV of treatment group; CRTV: RTV of negative control group). The relative tumor volume (RTV) was calculated based on the results of tumor measurement. The calculation formula is RTV=Vt/V0, where V0 is the average tumor volume measured at grouping for administration (i.e. d0), Vt is the average tumor volume at a certain measurement, and TRTV and CRTV take the data on the same day.
After the experiment, the tumor weight was measured, and the T/Cweight percentage was calculated. Tweight and Cweight represented the tumor weight of the administration group and the vehicle control group, respectively.
Remarks: The data in parentheses indicate the tumor volume corresponding to the vehicle group (i.e., the control group) at the corresponding time in this example.

[3] = target: MALT1 protease activity in TMD8 cells (substrate BCL-10) (Homo sapiens (Human), UniProt Q9UDY8); test: Intracellular MALT1 protease activity detection (BCL-10 ELISA in TMD8 cells); format: cell-based; settings: undigested BCL-10 by ELISA, 30 min compound then 2 h stimulation cocktail, read-out: Bcl10 TMD8 IC50
Chain of MALT1 protease activity in TMD8 cells (substrate BCL-10) (Q9UDY8 whole entry): as above
Procedure, shortened: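 TMD8 cells treated 30 min with compound (10000-1.5 nM, 9 points, 3-fold), then stimulated 2 h with cell stimulation cocktail. Undigested BCL-10 in lysates quantified by sandwich ELISA with TMB colour read-out; IC50 from four-parameter variable-slope fit.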

| Compound | IC50 (OCI-Ly3 cells) | IC50 [1] | TGI (%) Day 28 [2] | ΔT/ΔC(%) Day 28 [2] | Weight Day 28 [2] | Tumor volume (Mean ± SD) Day 28 [2] | IC50 [3] |
| --- | --- | --- | --- | --- | --- | --- | --- |
| O=C(Nc1cnc(-n2nccn2)c(C(F)(F)F)c1)c1cnn(-c2ccc3c4c(cccc24)C(=O)N3)c1C(F)(F)F [Example 18, N-(6-(2H-1,2,3-triazol-2-yl)-5-trifluoromethylpyridin-3-yl)-1-(2-oxo-1,2-dihydrobenzo[cd]indol-6-yl)-5-trifluoromethyl-1H-pyrazole-4-carboxamide] | 88 nM | 24 nM | 62.73% | 43.82% | 21.03 ± 0.42 | 635 ± 46 (1274 ± 82) mm^3 | 61 nM |
| O=C(Nc1ccnc(C(F)(F)F)c1)c1cnn(-c2ccc3c4c(cccc24)C(=O)N3)c1C1CC1 [Example 55, 5-cyclopropyl-1-(2-oxo-1,2-dihydrobenzo[cd]indol-6-yl)-N-(2-(trifluoromethyl)pyridin-4-yl)-1H-pyrazole-4-carboxamide] | 211 nM | 171 nM | 87.99% | 22.76% | 21.15 ± 0.72 | 287 ± 25 (1274 ± 82) mm^3 | 50 nM |
| O=C(Nc1ccc(-n2nccn2)c(Cl)c1)c1cnn(-c2ccc3c4c(cccc24)C(=O)N3)c1C(F)(F)F [Example 53, N-(3-chloro-4-(2H-1,2,3-triazol-2-yl)phenyl)-1-(2-oxo-1,2-dihydrobenzo[cd]indol-6-yl)-5-(trifluoromethyl)-1H-pyrazole-4-carboxamide] | 101 nM | 25 nM | 67.23% | 41.76% | 20.06 ± 1.08 | 519 ± 89 (1274 ± 82) mm^3 | 56 nM |
